This is an account of results in patent US20170166516A1, “STABLE POLYMORPH FORM B OF TAPENTADOL HYDROCHLORIDE” (priority 2014, published 2017).

Where a name gives a salt, the structure may show the parent alone.

The conditions of data set [1]: cited from earlier work; for stability of the crystalline form: ambient conditions, as disclosed in EP 1 612 203 A1, hydrochloride.
The nature of data set [2]: Stability test of polymorphic Form B on storage, followed by PXRD. It counts as physicochemical. As to conditions: for change in amount of polymorphic Form A in Form B on storage (PXRD): 2 month storage, ambient temperature, sample contains traces of Form A, Hydrochloride. The method, then: In FIG. 1 the PXRD pattern of a stability sample experiment 1 are shown as well as PXRD pattern of Tapentadol hydrochloride in polymorphic crystal structure A and in polymorphic crystal structure B. The upper most pattern results from a sample (experiment 1) after a 4 month stability test at 27° C. and 42% RH (relative humidity). The second of top pattern results from the initial sample prior to the stability testing. […] The second last pattern represents the mono-crystal structure of pure Tapentadol Hydrochloride in polymorphic crystal Form B. The last pattern represents the mono-crystal structure of pure Tapentadol Hydrochloride in polymorphic crystal Form A.
For Powder X-Ray Diffraction (PXRD) the samples were placed onto a Si-wafer (Bragg-Brentano) or into a standard glass capillary (Ø=0.7 mm) (Example 2). The measurements were performed at room temperature with a D8 Bruker Advance Diffractometer (Cu-Kα1=1.54059 Å, Johansson primary beam monochromator, position sensitive detector) in transmission mode with rotation of the sample.

As for `CC[C@@H](c1cccc(O)c1)[C@@H](C)CN(C)C` [Form B, Tapentadol hydrochloride], the “stability of the crystalline form” value in data set [1] is listed as “meta-stable only”.
`CC[C@@H](c1cccc(O)c1)[C@@H](C)CN(C)C` [Example 3, Tapentadol Hydrochloride]: the “change in amount of polymorphic Form A in Form B on storage (PXRD)” value is listed as “increase of Form A in Form B was observed” in data set [2] and “amount of polymorphic Form A obviously increased” in data set [2] (listed as experimental polymorphic Form B).
As to `CC[C@@H](c1cccc(O)c1)[C@@H](C)CN(C)C` [stable polymorph B, Tapentadol hydrochloride], the “duration of stability of polymorphic Form B” value in data set [1] (ambient temperatures, stabilised by low alkyl carboxylic acids or esters added during crystallization, WO 2013 111161 A1) was “several months”.
Regarding `CC[C@@H](c1cccc(O)c1)[C@@H](C)CN(C)C` [Form A, Tapentadol hydrochloride], the “stability of the crystalline form” value in data set [1] is given as “stable under ambient conditions”.
As for `CC[C@@H](c1cccc(O)c1)[C@@H](C)CN(C)C` [experiment 1, Tapentadol Hydrochloride], the “transformation of polymorphic crystal Form B to Form A (PXRD pattern after stability test)” value in data set [2] (4 month stability test at 27° C. and 42% RH) was “does not show any tendency to disintegrate or to transform to polymorphic crystal Form A”. In addition, the “transformation of Form B to polymorph A on storage (PXRD)” value in data set [2] (several months of storage under ambient conditions, no seeds of Form A) is on record as “no transformation to polymorph A”.
